≈ marks a conversion by molar mass, not a printed value. Structures can show the parent of a compound that is named as a salt. Where two headings read alike, the source gives them in different places.
Assays:
[1] = inhaled; cited from earlier work
[2] = pH and osmolality of amikacin starting material and solution; format: physicochemical; conditions: starting material
Excerpt: Amikacin Base, EP is compendial (Ph Eur) and is manufactured by ACS Dobfar S.p.a under DMF 13762. The API is manufactured in Bergamo, Italy. Fosfomycin Disodium is compendial (Ph Eur) and is manufactured by Ercros, S.A. under DMF 14341. The API is manufactured in Madrid, Spain. Rather than commercial amikacin sulfate, the amikacin base is the starting material. Amikacin base has a pH of approximately 11, and large amounts of HCl are required to neutralize the pH. In the two-part formulation (used to combine with equal volumes of 40 mg/mL fosfomycin to generate the final formulation of 50 mg/mL amikacin, 20 mg/mL fosfomycin), the amikacin 100 mg/mL solution has a final pH of 7.5-7.6 and has an osmolality of approximately 533 mOsmol/kg, of which only approximately 170 mOsmol/kg is due to the amikacin, the balance is from the chloride anion. This concentration of chloride anion provides the permeant anion that will prevent cough.
In contrast, the starting pH of amikacin sulfate is 3.5-5.5 and little or no HCl is needed to neutralize the pH of the solution. Note that in the Neiderman paper (supra) amikacin sulfate was delivered as an aerosol to patients with VAP, and bronchospasm was reported in some patients. […] As described above, a final formulation has an amikacin concentration of 50 mg/ml and chloride anion concentration of approximately 265 meq/liter. […]

[3] = of water; cited from earlier work
in vivo [4] = assay: in vivo; design: species or system beagle dogs; conditions: both sexes, beagle, dog, delivered as combination antibiotic aerosol, 7-day treatment
Procedure: Aerosol concentrations were determined on Days 1 and 7.

Klebsiella pneumoniae = assay: MIC by CLSI agar dilution, amikacin-resistant K. pneumoniae strains (SENTRY); format: cell-based; conditions: 20 K. pneumoniae isolates
Excerpt: (§1) Sixty-two amikacin-resistant strains were selected from a worldwide antimicrobial surveillance collection (SENTRY), which contains 35,000 organisms from six continents (56/62 organisms collected in 2011).

[5] = test system: Stenotrophomonas maltophilia; conditions: Zhanel et al.; cited from earlier work
Pseudomonas aeruginosa [6] = assay: MIC by CLSI agar dilution, amikacin-resistant P. aeruginosa strains (SENTRY); format: cell-based; conditions: 21 P. aeruginosa isolates
Excerpt: as §1

in vivo [7] = conditions: dog; for Cmax: both, beagle
Procedure: A GLP (Good Laboratory Practice) study was performed using 24 beagle dogs allocated to four dose groups (three males and three females per group) and exposed to aerosol generated with the PARI Investigational eFlow® Inline Nebulizer System using a closed-faced mask fitted with a mouth tube. The aerosols contained either control (water for injection) in Group 1 or a combined formulation containing 50 mg/mL amikacin and 20 mg/mL fosfomycin pH adjusted with HCl for Groups 2 to 4. Aerosol concentrations were determined on Days 1 and 7. The treatment period was for seven days with termination of the dogs on Day 8.
Toxicokinetic parameters were estimated using WinNonlin pharmacokinetic software version 5.2.1 (Pharsight Corp.). A non-compartmental approach consistent with the extravascular route of administration was used for parameter estimation. All parameters were generated from individual amikacin and fosfomycin concentrations in plasma from Days 1 and 7.

[8] = test system: 62 Gram-negative, amikacin-resistant pathogens; assay: MIC by CLSI agar dilution, all 62 amikacin-resistant isolates; format: cell-based; conditions: for MIC50: All 62 isolates
Excerpt: as §1

clinical = conditions: both, human, in vivo
Procedure: Adult patients having a clinical diagnosis of VAP, with a Gram-positive or Gram-negative organism in a tracheal aspirate sample were expected to be on mechanical ventilation for ≧3 days.
Each adult patient received 3 escalating doses of a mixture of 50 mg/mL amikacin and 20 mg/mL fosfomycin, with doses separated by 24±2 hours (Table 1).
All treatments were administered with a single patient, multi-treatment nebulizer (Investigational eFlow® Inline Nebulizer System; PARI Pharma GMBH, Starnberg, Germany), positioned in the inspiratory tubing between the ventilator and the patient. The nebulizer remained inline until all treatments were delivered.
A placebo: 0.9% normal saline, having a volume matched to the antibiotic dosing schedule was delivered via the PARI Investigational eFlow® Inline Nebulizer System in mechanically ventilated patients.
The eFlow® Inline Nebulizer System was positioned in the inspiratory tubing between the Puritan Bennett 840 Ventilator and the patient. Once in place, the nebulizer remained inline until all study-drug doses were delivered. Humidification continued during the nebulization of the formulation and the delivery of the entire dose.
Patients are male or female between 18 years and 80 years of age with clinical diagnosis of VAP or VAT, a Gram-positive or Gram-negative bacteria on Gram stain of the tracheal aspirate and were expected to be on mechanical ventilation for at least three days.

[9] = Aerosol particle size distribution (MMAD) in dog study; format: physicochemical; conditions: analytical methods, eFlow Inline Nebulizer aerosol
Pseudomonas aeruginosa [10] = conditions: 1477 Pseudomonas aeruginosa isolates, Zhanel et al.; cited from earlier work
Acinetobacter baumannii = assay: MIC by CLSI agar dilution, amikacin-resistant A. baumannii strains (SENTRY); format: cell-based; conditions: for MIC50: 21 A. baumannii isolates
Excerpt: as §1

[11] = test system: methicillin-resistant Staphylococcus aureus (MRSA); conditions: 148 MRSA isolates, data from the 1980s; cited from earlier work
[12] = read-out: Median (MIC50) Amikacin MIC
[13] = read-out: Median (MIC50) Fosfomycin MIC

NC[C@H]1O[C@H](O[C@H]2[C@H](O)[C@@H](O[C@H]3O[C@H](CO)[C@@H](O)[C@H](N)[C@H]3O)[C@H](N)C[C@@H]2N)[C@H](N)C[C@@H]1O [tobramycin]
airway half-life [1]: about 2 hours

NCC[C@H](O)C(=O)N[C@@H]1C[C@H](N)[C@@H](O[C@H]2O[C@H](CN)[C@@H](O)[C@H](O)[C@H]2O)[C@H](O)[C@H]1O[C@H]1O[C@H](CO)[C@@H](O)[C@H](N)[C@H]1O [Amikacin base]
pH [2]: approximately 11

C[C@@H]1O[C@@H]1P(=O)(O)O [disodium salt of fosfomycin, Fosfomycin disodium]
solubility [3]: 50 mg/mL

NCC[C@H](O)C(=O)N[C@@H]1C[C@H](N)[C@@H](O[C@H]2O[C@H](CN)[C@@H](O)[C@H](O)[C@H]2O)[C@H](O)[C@H]1O[C@H]1O[C@H](CO)[C@@H](O)[C@H](N)[C@H]1O [Amikacin, amikacin]
NOAEL at 7 days (in vivo [4]): 117 mg/kg/day
MIC50 (Klebsiella pneumoniae; [12]): 256 µg/mL (≈ 437 µM)
MIC 90 [5]: > 64 µg/mL
MIC50 (Pseudomonas aeruginosa [6]; [12]): 128 µg/mL (≈ 219 µM)
Cmax (in vivo [7]): 13200 to 39300 ng/mL
accumulation following repeat dosing (in vivo [7]): no clear indication of accumulation
MIC50 [8, 12]: 128 µg/mL (≈ 219 µM)
amikacin concentration required to inhibit all 62 isolates ([8]; FIG. 4): > 1024 µg/mL
Kp (clinical): > 2000
Mean amikacin Cmax in tracheal aspirate, fold higher than MIC 90 for P. aeruginosa (clinical): ≥ 406 fold
amikacin Cmax in tracheal aspirate, fold higher than MIC90 of P. aeruginosa (clinical): ≥ 89 fold
particle size distribution (MMAD) [9]: 2.80 μm
MIC 90 (Pseudomonas aeruginosa [10]): 32 µg/mL (≈ 54.6 µM)
MIC (Acinetobacter baumannii; 5 A. baumannii isolates with high amikacin resistance): > 1020 µg/mL
MIC50 (Acinetobacter baumannii; [12]): 8 µg/mL (≈ 13.7 µM)

C[C@@H]1O[C@@H]1P(=O)(O)O [Fosfomycin, fosfomycin]
NOAEL at 7 days (in vivo [4]): 47.5 mg/kg/day
MIC50 (Klebsiella pneumoniae; [13]): 25.6 µg/mL (≈ 185 µM)
MIC50 (Pseudomonas aeruginosa [6]; [13]): 51.2 µg/mL (≈ 371 µM)
Cmax (in vivo [7]): 8700 to 28700 ng/mL
accumulation following repeat dosing (in vivo [7]): no clear indication of accumulation
MIC50 [8, 13]: 51.2 µg/mL (≈ 371 µM)
MIC 90 [11]: 32 µg/mL (≈ 232 µM)
Kp (clinical): > 2000
Mean fosfomycin Cmax in tracheal aspirate, fold higher than MIC 90 for MRSA (clinical): 281 fold
fosfomycin Cmax in tracheal aspirate, fold higher than MIC 90 of MRSA (clinical): ≥ 54 fold
fosfomycin tracheal aspirate concentrations, fold above the MIC 90 for MRSA (clinical; 6 h): ≥ 2.2 fold
particle size distribution (MMAD) [9]: 2.75 μm
MIC50 (Acinetobacter baumannii; [13]): 205 µg/mL (≈ 1480 µM)

From patent US8636983B2, “Aminoglycoside and fosfomycin combination for treatment of ventilator associated pneumonia (VAP) and ventilator associated tracheal (VAT) bronchitis” (priority 2011, dated 2014)
